# Measured values reported in patent US20060069132A1, “Azolecarboxamide herbicides” (priority 2004, published 2006).
# Tests used:
# giant foxtail = assay: Test A pre-/postemergence herbicide test; assay type: in vivo, Setaria faberi
# How it was run: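 Visual injury scores on a 0–100 scale (100 = complete control) taken about ten days post-treatment in greenhouse against untreated controls; dash means no result. Treatments: preemergence soil spray and postemergence spray to runoff on one- to two-leaf plants 2 to 10 cm tall, surfactant-containing formulation.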
# yellow nutsedge = assay: Test C pre-/postemergence herbicide test; assay type: in vivo, Cyperus esculentus; conditions: for Nutsedge, Yellow plant response rating: 500 g ai/ha
# How it was run: (§1)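 Visual ratings on a 0–100 scale (100 = complete control) made versus untreated controls after 12 to 14 greenhouse days. Test chemicals, formulated in surfactant-containing non-phytotoxic solvent, applied preemergence to planted seeds or postemergence to 1- to 4-leaf plants (2 to 18 cm).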
# eastern black nightshade = assay: Test C pre-/postemergence herbicide test; assay type: in vivo, Solanum ptycanthum; conditions: for Plant response rating (0 = no effect, 100 = complete control), Nightshade / Plant response rating, Nightshade: preemergence; for Nightshade plant response rating: Preemergence, 500 g ai/ha, scale 0 to 100, 0 no effect, 100 complete control
# How it was run: as §1
# ducksalad = assay: Test C flooded paddy test; assay type: in vivo, Heteranthera limosa; conditions: for Plant response rating, Ducksalad: visual rating after 12 to 14 days
# bermudagrass = assay: Test C pre-/postemergence herbicide test; assay type: in vivo, Cynodon dactylon
# How it was run: as §1
# cocklebur = assay: Test C pre-/postemergence herbicide test; assay type: in vivo, Xanthium strumarium; conditions: for Cocklebur plant response rating: 500 g ai/ha
# How it was run: as §1
# [1] = 250 g ai/ha, scale 0 to 100 (0 no effect, 100 complete control), visual, 12 to 14 days, preemergence
# [2] = Postemergence, 250 g ai/ha, scale 0 to 100, 0 no effect, 100 complete control
# [3] = Preemergence, scale 0 to 100, 0 no effect, 100 complete control
# [4] = postemergence, 125 g ai/ha, scale 0 to 100
# [5] = postemergence, 62 g ai/ha, scale 0 to 100
# [6] = 62 g ai/ha, scale 0 to 100 (0 no effect, 100 complete control)
# [7] = 500 g ai/ha, scale 0 to 100 (0 no effect, 100 complete control)
# [8] = 125 g ai/ha, scale 0-100, preemergence
# [9] = Postemergence, 125 g ai/ha, scale 0 to 100, 0 no effect, 100 complete control
# [10] = Preemergence, 500 g ai/ha, scale 0 to 100, 0 no effect, 100 complete control
# [11] = Postemergence, 500 g ai/ha, 0 to 100 scale, 0 no effect, 100 complete control
# [12] = Postemergence, 2000 g ai/ha, 0 to 100 scale, 0 no effect, 100 complete control
# [13] = Preemergence, 2000 g ai/ha, visual rating, 0 to 100 scale (0 no effect, 100 complete control)
# [14] = 125 g ai/ha, scale 0 (no effect) to 100 (complete control), visual, 12 to 14 days, preemergence
# [15] = 125 g ai/ha, scale 0 (no effect) to 100 (complete control), visual, 12 to 14 days
# [16] = 125 g ai/ha, scale 0 to 100 (0 no effect, 100 complete control)
# [17] = 62 g ai/ha, preemergence, scale 0 to 100
# [18] = 250 g ai/ha, scale 0-100, preemergence
structure (smiles),measurement,setting,value
CCNC(=O)c1cccc(NC(=O)c2cc(C(C)(C)C)nn2CC(F)(F)F)c1 [Compound 31],"Foxtail, Giant plant response rating","giant foxtail; Postemergence, 250 g ai/ha, 0 to 100 scale, 0 no effect, 100 complete control",45
same,"Plant response rating, Foxtail, Giant","giant foxtail; Postemergence, 1000 g ai/ha, 0 to 100 scale, 0 no effect, 100 complete control",70
same,"Foxtail, Giant plant response rating","giant foxtail; Preemergence, 1000 g ai/ha, visual rating, 0 to 100 scale (0 no effect, 100 complete control)",50
same,"Foxtail, Giant plant response rating","giant foxtail; preemergence, 250 g ai/ha, visual injury, 0 to 100 scale (0 no effect, 100 complete control)",20
same,"Plant response rating (0 = no effect, 100 = complete control), Nutsedge, Yellow","yellow nutsedge; 62 g ai/ha, preemergence",0
same,"Plant response rating, Nutsedge, Yellow",yellow nutsedge; [1],0
same,"Nutsedge, Yellow plant response rating","yellow nutsedge; Postemergence, scale 0 to 100",30
same,"Plant response rating, Nutsedge, Yellow",yellow nutsedge; [2],30
same,"Nutsedge, Yellow plant response rating",yellow nutsedge; [3],0
same,"Plant response rating, Nutsedge, Yellow",yellow nutsedge; [4],0
same,"Plant response rating, Nutsedge, Yellow",yellow nutsedge; [5],0
same,"Plant response rating (0 = no effect, 100 = complete control), Nightshade",eastern black nightshade; 62 g ai/ha,90
same,"Plant response rating, Nightshade","eastern black nightshade; 250 g ai/ha, scale 0 to 100 (0 no effect, 100 complete control), visual, 12 to 14 days",100
same,Nightshade plant response rating,eastern black nightshade,100
same,Ducksalad plant response rating,ducksalad; [6],10
same,Ducksalad plant response rating,"ducksalad; 125 g ai/ha, scale of 0 to 100, 0 is no effect, 100 is complete control",20
same,"Plant response rating, Ducksalad","ducksalad; 250 g ai/ha, scale 0 to 100 (0 no effect, 100 complete control)",40
same,"Plant response rating, Ducksalad",ducksalad; [7],60
same,"Plant response rating (0 = no effect, 100 = complete control), Bermudagrass","bermudagrass; 62 g ai/ha, preemergence",20
same,"Plant response rating, Bermudagrass",bermudagrass; [8],90
same,"Plant response rating, Bermudagrass",bermudagrass; [1],100
same,Bermudagrass plant response rating,"bermudagrass; Postemergence, 500 g ai/ha, scale 0 to 100",40
same,"Plant response rating, Bermudagrass",bermudagrass; [9],20
same,Bermudagrass plant response rating,"bermudagrass; Postemergence, 250 g ai/ha, scale 0 to 100",20
same,Bermudagrass plant response rating,bermudagrass; [10],100
same,"Plant response rating, Bermudagrass",bermudagrass; [5],10
same,"Plant response rating (0 = no effect, 100 = complete control), Cocklebur","cocklebur; 62 g ai/ha, preemergence",0
same,"Plant response rating, Cocklebur",cocklebur; [8],20
same,"Plant response rating, Cocklebur",cocklebur; [1],40
same,Cocklebur plant response rating,"cocklebur; Postemergence, scale 0 to 100",60
same,"Plant response rating, Cocklebur",cocklebur; [9],40
same,"Plant response rating, Cocklebur",cocklebur; [2],40
same,"Plant response rating, Cocklebur",cocklebur; [5],40
C#CCNC(=O)c1cccc(NC(=O)c2cc(C(C)(C)C)nn2CC)n1 [Compound 147],"Foxtail, Giant plant response rating",giant foxtail; [11],45
same,"Plant response rating, Foxtail, Giant",giant foxtail; [12],90
same,"Foxtail, Giant plant response rating","giant foxtail; Preemergence, 500 g ai/ha, visual rating, 0 to 100 scale (0 no effect, 100 complete control)",60
same,"Foxtail, Giant plant response rating",giant foxtail; [13],95
same,"Plant response rating (0 = no effect, 100 = complete control), Nutsedge, Yellow","yellow nutsedge; 62 g ai/ha, preemergence",0
same,"Plant response rating, Nutsedge, Yellow",yellow nutsedge; [14],0
same,"Nutsedge, Yellow plant response rating","yellow nutsedge; Postemergence, scale 0 to 100",0
same,"Plant response rating, Nutsedge, Yellow",yellow nutsedge; [2],0
same,"Nutsedge, Yellow plant response rating",yellow nutsedge; [3],0
same,"Plant response rating, Nutsedge, Yellow",yellow nutsedge; [4],0
same,"Plant response rating, Nutsedge, Yellow",yellow nutsedge; [5],0
same,"Plant response rating (0 = no effect, 100 = complete control), Nightshade",eastern black nightshade; 62 g ai/ha,40
same,"Plant response rating, Nightshade",eastern black nightshade; [15],70
same,Nightshade plant response rating,eastern black nightshade,100
same,Ducksalad plant response rating,"ducksalad; 16 g ai/ha, scale 0 to 100",0
same,Ducksalad plant response rating,"ducksalad; 31 g ai/ha, scale 0 to 100",0
same,Ducksalad plant response rating,ducksalad; [6],0
same,Ducksalad plant response rating,ducksalad; [16],0
same,"Plant response rating (0 = no effect, 100 = complete control), Bermudagrass","bermudagrass; 62 g ai/ha, preemergence",40
same,"Plant response rating, Bermudagrass",bermudagrass; [14],70
same,"Plant response rating, Bermudagrass",bermudagrass; [1],90
same,"Plant response rating, Bermudagrass",bermudagrass; [2],70
same,Bermudagrass plant response rating,bermudagrass; [10],95
same,"Plant response rating (0 = no effect, 100 = complete control), Cocklebur","cocklebur; 62 g ai/ha, preemergence",0
same,Cocklebur plant response rating,"cocklebur; Postemergence, scale 0 to 100",20
same,"Plant response rating, Cocklebur",cocklebur; [2],5
same,Cocklebur plant response rating,cocklebur; [3],0
same,"Plant response rating, Cocklebur",cocklebur; [4],5
same,"Plant response rating, Cocklebur",cocklebur; [5],0
CCNC(=O)c1ccc(F)c(NC(=O)c2cc(C3(C)CC3)nn2CC)c1 [Compound 300],"Foxtail, Giant plant response rating",giant foxtail; [11],55
same,"Plant response rating, Foxtail, Giant",giant foxtail; [12],90
same,"Foxtail, Giant plant response rating",giant foxtail; [13],100
same,"Foxtail, Giant plant response rating","giant foxtail; preemergence, 500 g ai/ha, visual injury, 0 to 100 scale (0 no effect, 100 complete control)",95
same,"Plant response rating, Nutsedge, Yellow","yellow nutsedge; 31 g ai/ha, scale 0 to 100, last section of Table C, preemergence",0
same,"Plant response rating, Nutsedge, Yellow",yellow nutsedge; [17],0
same,"Plant response rating, Nutsedge, Yellow",yellow nutsedge; [14],20
same,"Plant response rating, Nutsedge, Yellow",yellow nutsedge; [18],60
same,"Plant response rating, Nightshade","eastern black nightshade; 62 g ai/ha, scale 0 to 100",100
same,"Plant response rating, Nightshade",eastern black nightshade; [15],100
same,"Plant response rating, Nightshade","eastern black nightshade; 250 g ai/ha, scale 0-100",100
same,Ducksalad plant response rating,"ducksalad; 62 g ai/ha, scale 0 to 100",75
same,Ducksalad plant response rating,ducksalad; [16],80
same,Ducksalad plant response rating,"ducksalad; 250 g ai/ha, scale of 0 to 100, 0 is no effect, 100 is complete control",85
same,"Plant response rating, Ducksalad",ducksalad; [7],90
same,"Plant response rating, Bermudagrass","bermudagrass; 31 g ai/ha, scale 0 to 100, 0 no effect, 100 complete control, last section of Table C (species set of preemergence test)",80
same,"Plant response rating, Bermudagrass","bermudagrass; 62 g ai/ha, preemergence, scale 0 to 100, 0 no effect, 100 complete control",95
same,"Plant response rating, Bermudagrass",bermudagrass; [14],100
same,"Plant response rating, Bermudagrass",bermudagrass; [18],100
same,"Plant response rating, Cocklebur",cocklebur; [17],5
same,"Plant response rating, Cocklebur",cocklebur; [14],5
same,"Plant response rating, Cocklebur",cocklebur; [18],5
